Literature values, collected in patent US4801594A, “Aromatase inhibitors” (Eli Lilly and Company, priority 1984, dated 1989).

Tested on: breast cancer
Conditions: known aromatase inhibitors; see Cancer Research, Vol. 42, Suppl. 8: 3261s (1982)

SMILES	effect in treatment of breast cancer
CCC1(c2ccc(N)cc2)CCC(=O)NC1=O (centres unmarked) [aminoglutethimide]	beneficial effect
C[C@]12C=CC(=O)C=C1CC[C@@H]1[C@@H]2CC[C@]2(C)OC(=O)CC[C@@H]12 [testolactone]	beneficial effect
